Patent US20260248783A1 (ASCLETIS BIOSCIENCE CO., LTD., priority 2021, published 2026)
Structures can show the parent of a compound that is named as a salt.

How the values were obtained:
[1] = test system: Hep3B-OS8-hPDL1 and T cells; assay: Hep3B-OS8-hPDL1 and T Cells Co-Culture Assay (IFN-γ by ELISA); assay type: cell-based; conditions: T-cell, Hep3B-OS8-hPDL1 and human CD3+ T cells, 72 hours, read-out: Tumor and T Cell EC50
Procedure: Example 110. Hep3B-OS8-hPDL1 and T Cells Co-Culture Assay
1. Hep3B-OS8-hPDL1 cells were cultured in 1640 medium supplemented with 10% fetal bovine serum, 1% penicillin and streptomycin, in which 100 μg/mL G418 and Hygromycin B were also added.
2. Hep3B-OS8-hPDL1 cells were harvested and treated with 10 μg/mL mitomycin C at 37° C. for 1.5 h, and the cells were then washed thoroughly with PBS for four times.
3. Cells were re-suspended with RPMI 1640 medium containing 10% FBS and the cell density was adjusted to 5×10^5 cells/mL.
4. Cells were seeded into 96-well flat bottom plate (2.5×10^4 cells/50 μL/well).
b. CD3+ T cells isolation (30 mL blood)
5. The human blood sample from an individual donor was diluted by the same volume of sterile PBS, for instance add 25 mL sterile PBS into 25 mL fresh whole blood and mix sufficiently by gentle shake.
6. Transferred 15 mL Lymphoprep medium into a new 50 mL centrifuge tube.
7. Added the diluted blood sample as soft as possible onto the surface of the Ficoll medium to make sure there is a clear dividing line between the two liquids, and the volume ratio between Ficoll and diluted blood (30 mL) is 1:2.
8. Moved the tube gently to centrifuge, at 1000×g, 25 min, 20° C., with the acceleration (5) and Min deceleration (0) settings during the centrifugation.
9. Four interfaces in all could be observed after the centrifugation, which are layers of plasma, mononuclear cells, the Ficoll medium and RBCs from top to bottom, and move the tube as gently as possible so as keep the four interfaces separated. Absorbed and transferred the second layer of mononuclear cells into another new sterile centrifuge tube carefully, and absorbed certain volume of plasma instead of the Ficoll medium if inevitable.
10. Added sterile PBS of the three times the volume of PBMCs in the tube with PBMC.
11. Washed the cells twice with 5-10 mL PBS before cell counting with cytometer. Centrifuge at 350×g, 10 min, 20° C. With the acceleration (5) and deceleration (5) settings during the centrifugation.
12. Resuspended the cells with recommended medium and adjust the density of the PBMCs to the final concentration of 5×10^7 cells/mL.
13. Isolated CD3+ T cells with EasySep™ Human T Cell Isolation Kit (STEMCELL Technologies #17951), and the cells were seeded into 96-well flat bottom plate (5×10^4 cells/100 μL/well). c. Compounds solutions preparation
14. Prepared the Compounds dilutions in RPMI 1640 medium with 10% FBS according to the Layout. 15. Added compounds into each well in a volume of 50 μL. {3 compounds (GLC01-258, GLC01-269, GLC01-465) in 7 concentrations (0.03, 0.1, 0.3, 1, 3, 10 and 30 μM) and 6 compounds (GLC01-411, GLC01-292, GLC01-445, GLC01-475, GLC01-470 and GLC01-468) in the same concentration (1 μM)}.
16. Keytruda was included as positive control, the concentration was 5 μg/mL. 17. Incubated for 72 hours at 37° C., 5% CO2.
18. Collected supernatant by centrifugation and measure IFN-γ by ELISA.

[2] = target: T1, PD-1/PD-L1 (Homo sapiens, UniProt Q9NZQ7); assay: PD-1/PD-L1 Homogeneous Time-Resolved Fluorescence (HTRF) Binding Assay; conditions: PD-1/PD-L1 HTRF activity; 3 nM PD1, 10 nM PD-L1, 25° C.
T1 construct: Recombinant human PD-L1 protein (19-238) with a Histag at the C-terminus; purchased AcroBiosystems PD1-H5229 (PD-L1); PD1-H5257 (PD-1)
How it was run: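 Human PD-L1 (19-238, His-tag) 10 nM and PD-1 (25-167, Fc-tag) 3 nM preincubated 40 min with inhibitor in PBS pH 7.4, 0.05% Tween-20, 0.1% BSA, 1% DMSO, 25 °C. Eu-anti-human IgG (1 nM) and anti-His-APC (20 nM) added, 60 min, 665/620 nm ratio; IC50 from percent control activity versus log concentration.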

[3] = target: T2, extracellular domains of PD-L1 (Homo sapiens, UniProt Q9NZQ7); assay: PD-L1 Dimerization; assay type: biochemical; conditions: PD-L1-Eu and PD-L1-A2, ratio 665 nm/615 nm
T2 construct: specifically dimerize the extracellular domains of PD-L1
Procedure: Example 108. PD-L1 Dimerization
Compounds were tested in biochemical protein-protein interaction assays to determine if they can specifically dimerize the extracellular domains of PD-L1. • (1) Diluted cpd 1:3 in succession in DMSO for each column for 10 samples • (2) Transferred 0.2 μL cpds solution in each row to 384 assay plate using Echo, each column containing 2 replicates • (3) Added 20 μL prepared mixture include PD-L1-Eu and PD-L1-A2 solution to assay plate, centrifuged at 1000 rpm for 1 min. • (4) Incubated at 25° C. for […]. • (5) Read fluorescence signal on Envision 2104 plate reader. • (6) Read the Ratio (665 nm/615 nm) signal on Envision. • (7) Analyzed the raw data using the equation (V. Data analysis)

T2 sequence (Q9NZQ7 19-238 limits assumed): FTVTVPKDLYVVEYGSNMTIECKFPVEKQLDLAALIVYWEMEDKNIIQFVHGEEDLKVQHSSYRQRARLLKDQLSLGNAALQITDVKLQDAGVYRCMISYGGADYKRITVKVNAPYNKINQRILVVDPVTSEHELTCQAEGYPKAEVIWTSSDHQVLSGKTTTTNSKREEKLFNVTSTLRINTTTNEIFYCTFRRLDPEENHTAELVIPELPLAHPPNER
T1 sequence (Q9NZQ7 19-238): as the sequence (Q9NZQ7 19-238 limits assumed) above

| EC50 [1] [nM] | IC50 [2] [nM] | EC50 [3] [nM] | SMILES |
| --- | --- | --- | --- |
| ≥ 100 | < 10 | – | Cc1cn2cc(-c3cccc(-c4cccc(-c5cc6c(=O)n(CCN7CC[C@H](C(=O)O)C7)c(C)cn6c5)c4Cl)c3Cl)cc2c(=O)n1CCN1CC[C@H](C(=O)O)C1 [Compound 53, (3S,3'S)-1,1′-(((2,2′-dichloro-[1,1′-biphenyl]-3,3′-diyl)bis(3-methyl-1-oxopyrrolo[1,2-a]pyrazine-7,2(1H)-diyl))bis(ethane-2,1-diyl))bis(pyrrolidine-3-carboxylic acid)] |
| < 50 | 10 to 100 | 50 to 100 | Cc1cn2nc(-c3cccc(-c4cccc(-c5cc6c(=O)n(CCNC7(C(=O)O)CC(O)C7)c(C)cn6n5)c4Cl)c3Cl)cc2c(=O)n1CCNC1(C(=O)O)CC(O)C1 (stereo not shown) [Compound 85] |
| ≥ 100 | < 10 | 50 to 100 | Cc1cn2cc(-c3cccc(-c4cccc(-c5cc6c(=O)n(CCN[C@@H](CO)C(=O)O)c(C)cn6c5)c4Cl)c3Cl)cc2c(=O)n1CCN[C@@H](CO)C(=O)O [Compound 63, (2S,2'S)-2,2′-((((2,2′-dichloro-[1,1′-biphenyl]-3,3′-diyl)bis(3-methyl-1-oxopyrrolo[1,2-a]pyrazine-7,2(1H)-diyl))bis(ethane-2,1-diyl))bis(azanediyl))bis(3-hydroxypropanoic acid)] |
| < 50 | 10 to 100 | – | Cc1cn2nc(-c3cccc(-c4cccc(-c5cc6c(=O)n(CCN7CC[C@H](O)[C@H]7C(=O)O)c(C)cn6n5)c4Cl)c3Cl)cc2c(=O)n1CCN1CC[C@H](O)[C@H]1C(=O)O [Compound 89, (2S,2'S,3S,3'S)-1,1′-(((2,2′-dichloro-[1,1′-biphenyl]-3,3′-diyl)bis(6-methyl-4-oxopyrazolo[1,5-a]pyrazine-2,5(4H)-diyl))bis(ethane-2,1-diyl))bis(3-hydroxypyrrolidine-2-carboxylic acid)] |
| 50 to 100 | 10 to 100 | < 50 | Cn1c(C[C@@H]2CCCN2)nn2cc(-c3cccc(-c4cccc(-c5cc6c(=O)n(C)c(C[C@@H]7CCCN7)nn6c5)c4Cl)c3Cl)cc2c1=O [Compound 76, 6,6′-(2,2′-dichloro-[1,1′-biphenyl]-3,3′-diyl)bis(3-methyl-2-(((S)-pyrrolidin-2-yl)methyl)pyrrolo[2,1-f][1,2,4]triazin-4(3H)-one)] |
| 50 to 100 | < 10 | 50 to 100 | Cc1cn2cc(-c3cccc(-c4cccc(-c5cc6c(=O)n(CCNCCO)c(C)cn6c5)c4Cl)c3Cl)cc2c(=O)n1CCNCCO [Compound 51, 7,7′-(2,2′-dichloro-[1,1′-biphenyl]-3,3′-diyl)bis(2-(2-((2-hydroxyethyl)amino)ethyl)-3-methylpyrrolo[1,2-a]pyrazin-1(2H)-one)] |
| 50 to 100 | < 10 | < 50 | Cc1cn2nc(-c3cccc(-c4cccc(-c5cc6c(=O)n(CCNCCO)c(C)cn6n5)c4Cl)c3Cl)cc2c(=O)n1CCNCCO [Compound 52, 2,2′-(2,2′-dichloro-[1,1′-biphenyl]-3,3′-diyl)bis(5-(2-((2-hydroxyethyl)amino)ethyl)-6-methylpyrazolo[1,5-a]pyrazin-4(5H)-one)] |
| ≥ 100 | < 10 | 50 to 100 | Cc1cn2nc(-c3cccc(-c4cccc(-c5cc6c(=O)n(CCN7CC[C@H](C(=O)O)C7)c(C)cn6n5)c4Cl)c3Cl)cc2c(=O)n1CCN1CC[C@H](C(=O)O)C1 [Compound 47, (3S,3'S)-1,1′-(((2,2′-dichloro-[1,1′-biphenyl]-3,3′-diyl)bis(6-methyl-4-oxopyrazolo[1,5-a]pyrazine-2,5(4H)-diyl))bis(ethane-2,1-diyl))bis(pyrrolidine-3-carboxylic acid)] |
| < 50 | < 10 | < 50 | Cc1cn2nc(-c3cccc(-c4cccc(-c5cc6c(=O)n(C[C@@H]7CCCN7)c(C)cn6n5)c4Cl)c3Cl)cc2c(=O)n1C[C@@H]1CCCN1 [Compound 36, 2,2′-(2,2′-dichloro-[1,1′-biphenyl]-3,3′-diyl)bis(6-methyl-5-(((S)-pyrrolidin-2-yl)methyl)pyrazolo[1,5-a]pyrazin-4(5H)-one) dihydrochloride] |
